# Test results taken from EP4223882A1, “PROCESS FOR PRODUCING ALDONIC ACIDS” (Vilnius University, priority 2022, dated 2023).
# Read-outs that look alike come from different tables or passages of the source.
# T1: PQQGDH (Acinetobacter calcoaceticus, UniProt P13650)
# T1 sequence (P13650 25-478): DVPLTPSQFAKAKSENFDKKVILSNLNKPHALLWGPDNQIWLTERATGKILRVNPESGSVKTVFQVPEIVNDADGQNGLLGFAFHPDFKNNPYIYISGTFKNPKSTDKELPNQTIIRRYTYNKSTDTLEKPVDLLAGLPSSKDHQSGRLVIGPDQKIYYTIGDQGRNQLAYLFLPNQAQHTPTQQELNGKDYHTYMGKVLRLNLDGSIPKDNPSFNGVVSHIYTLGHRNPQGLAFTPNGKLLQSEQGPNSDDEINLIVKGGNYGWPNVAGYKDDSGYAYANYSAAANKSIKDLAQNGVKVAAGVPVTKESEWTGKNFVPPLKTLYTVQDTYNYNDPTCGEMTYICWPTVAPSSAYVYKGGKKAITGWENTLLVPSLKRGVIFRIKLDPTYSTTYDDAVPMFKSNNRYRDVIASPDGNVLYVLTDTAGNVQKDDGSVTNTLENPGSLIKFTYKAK
# T2: horseradish peroxidase (Armoracia rusticana, UniProt P00433)
# T2 sequence (P00433 31-338 limits assumed): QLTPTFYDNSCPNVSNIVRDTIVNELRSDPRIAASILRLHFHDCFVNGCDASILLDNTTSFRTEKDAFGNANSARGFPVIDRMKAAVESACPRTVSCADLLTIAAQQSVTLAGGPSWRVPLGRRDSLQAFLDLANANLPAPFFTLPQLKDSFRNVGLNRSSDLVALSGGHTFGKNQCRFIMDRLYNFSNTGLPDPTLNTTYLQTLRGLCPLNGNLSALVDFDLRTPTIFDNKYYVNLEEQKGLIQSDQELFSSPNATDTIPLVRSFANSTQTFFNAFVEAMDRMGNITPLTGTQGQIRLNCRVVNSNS
# Assays:
# PQQGDH [1] = target: T1, PQQGDH; details: for cmax: sqrt(KM·Ki)
# Protocol: (§1) The enzyme solution was prepared using deionized water and the molar concentration was calculated assuming the molecular mass of the enzyme to be 100 kDa.
# (§2) The dependence of PQQGDH catalysed substrate oxidation rate of substrate concentration was estimated for various substrates at thionine concentration of 220 µM (Fig. 3). The dependence of thionine reduction rate on carbohydrate concentration was analysed by applying the equation X1 and the apparent parameters KM, Ki and Vmax were calculated: v = (s⋅Vmax)/(KM + s⋅(1+(s)/(Ki))) [formula]
# (§3) The ratio of Vmax with Km was considered as the parameter specifying the reactivity of the various substrates - the higher the value of the ratio - the better substrate reactivity. Ki - is the enzyme inhibition by the substrate constant. The concentration of the substrate at which the rate of thionine reduction was maximal (Cmax) was calculated as sqrt(KM ⋅Ki) [formula] .
# horseradish peroxidase = target: T2, horseradish peroxidase; details: cited from earlier work
# PQQGDH [2] = target: T1, PQQGDH; test: biochemical
# Protocol: as §1, §2, §3
# [3] = substrate: O=C[C@H](O)[C@H](O)[C@H](O)CO; test: purified protein, by the assay type; details: other: pH 7.0, thionine 220 µM, apparent parameter
# Protocol: as §1, §2, §3
# [4] = substrate: OC[C@H]1O[C@@H](O[C@H]2[C@H](O)[C@@H](O)C(O)O[C@@H]2CO)[C@H](O)[C@@H](O)[C@H]1O; test: purified protein, by the assay type; details: apparent parameter
# Protocol: as §1, §2, §3
# [5] = substrate: O=C[C@H](O)[C@@H](O)[C@H](O)CO; test: purified protein, by the assay type; details: other: pH 7.0, thionine 220 µM, apparent parameter
# Protocol: as §1, §2, §3
# [6] = substrate: O=C[C@H](O)[C@@H](O)[C@@H](O)[C@H](O)CO; test: purified protein, by the assay type; details: apparent parameter
# Protocol: as §1, §2, §3
# [7] = pH 7.0, thionine 220 µM, substrate concentration at maximal rate
# [8] = pH 7.0, thionine 410 µM (asterisk)
# [9] = Ki, pH 7.0, thionine 410 µM (asterisk), enzyme inhibition by the substrate constant
# [10] = other: pH 7.0, thionine 410 µM (asterisk)
molecule,measurement,setting,value
O=C[C@H](O)[C@@H](O)[C@H](O)CO [Xylose],substrate concentration at which the maximal reaction rate was observed (cmax),PQQGDH [1]; grouping of substrates,> 20 mM
same,cmax,PQQGDH [1]; [7],88 ± 8 mM
O=C[C@H](O)[C@H](O)[C@H](O)CO [Ribose],substrate concentration at which the maximal reaction rate was observed (cmax),PQQGDH [1]; grouping of substrates,> 20 mM
same,cmax,PQQGDH [1]; [7],84 ± 39 mM
O=C[C@@H](O)[C@@H](O)[C@H](O)CO [Lyxose],substrate concentration at which the maximal reaction rate was observed (cmax),PQQGDH [1]; grouping of substrates,> 20 mM
same,Vmax,"PQQGDH [1]; pH 7.0, thionine 220 µM, apparent parameter",190 ± 40 s⁻¹
same,cmax,PQQGDH [1]; [7],>10^4 mM
Nc1ccc2c(c1)Sc1cc(N)ccc1N2 [leuco thionine],bimolecular horseradish peroxidase and leuco thionine reactivity constant,horseradish peroxidase,4.8e+08 M⁻¹ s⁻¹
O=C[C@H](O)[C@@H](O)[C@@H](O)[C@H](O)CO [Galactose],substrate concentration at which the maximal reaction rate was observed (cmax),PQQGDH [1],< 20 mM
OC[C@H]1O[C@@H](O[C@H]2[C@H](O)[C@@H](O)C(O)O[C@@H]2CO)[C@H](O)[C@@H](O)[C@H]1O (stereo partly shown) [Lactose],substrate concentration at which the maximal reaction rate was observed (cmax),PQQGDH [1]; grouping of substrates,< 20 mM
same,cmax,PQQGDH [1]; [7],5.2 ± 0.9 mM
same,cmax,PQQGDH [1]; [8],6.4 ± 0.4 mM
same,Ki,PQQGDH [2],25 ± 2 mM
same,Ki,PQQGDH [2]; [9],51 ± 2 mM
O=C[C@H](O)[C@@H](O)[C@H](O[C@@H]1O[C@H](CO)[C@@H](O)[C@H](O)[C@H]1O)[C@H](O)CO [Cellobiose],substrate concentration at which the maximal reaction rate was observed (cmax),PQQGDH [1]; grouping of substrates,< 20 mM
same,cmax,PQQGDH [1]; [7],2.4 ± 0.2 mM
same,cmax,PQQGDH [1]; [8],3.3 ± 0.2 mM
same,Ki,PQQGDH [2],11 ± 1 mM
same,Ki,PQQGDH [2]; [9],21 ± 1 mM
PQQGDH (Acinetobacter calcoaceticus) (protein) DVPLTPSQFAKAKSENFDKKVILSNLNKPHALLWGPDNQIWLTERATGKILRVNPESGSVKTVFQVPEIVNDADGQNGLLGFAFHPDFKNNPYIYISGTFKNPKSTDKELPNQTIIRRYTYNKSTDTLEKPVDLLAGLPSSKDHQSGRLVIGPDQKIYYTIGDQGRNQLAYLFLPNQAQHTPTQQELNGKDYHTYMGKVLRLNLDGSIPKDNPSFNGVVSHIYTLGHRNPQGLAFTPNGKLLQSEQGPNSDDEINLIVKGGNYGWPNVAGYKDDSGYAYANYSAAANKSIKDLAQNGVKVAAGVPVTKESEWTGKNFVPPLKTLYTVQDTYNYNDPTCGEMTYICWPTVAPSSAYVYKGGKKAITGWENTLLVPSLKRGVIFRIKLDPTYSTTYDDAVPMFKSNNRYRDVIASPDGNVLYVLTDTAGNVQKDDGSVTNTLENPGSLIKFTYKAK,Km,[3],21 ± 5 mM
same,kcat,[3],250 ± 60 s⁻¹
same,Km,"[4]; other: pH 7.0, thionine 220 µM",1.5 ± 0.1 mM
same,kcat,"[4]; other: pH 7.0, thionine 220 µM",380 ± 50 s⁻¹
same,Km,[4]; [10],0.61 ± 0.02 mM
same,kcat,[4]; [10],430 ± 10 s⁻¹
same,Km,[5],7.1 ± 0.3 mM
same,kcat,[5],460 ± 20 s⁻¹
same,Km,"[6]; other: pH 7.0, thionine 220 µM",2.4 ± 0.2 mM
same,kcat,"[6]; other: pH 7.0, thionine 220 µM",350 ± 30 s⁻¹
same,Km,[6]; [10],1.8 ± 0.1 mM
same,kcat,[6]; [10],349 ± 2 s⁻¹
